Test results as given in patent US11697650B2, “Compounds having tetrahydroindolizine-1-carboxamide as BCL-2 inhibitors” (Eil Therapeutics, Inc., priority 2021, dated 2023).

Tests used:
[1] = target: BCL-2 (Homo sapiens (Human), UniProt P10415); assay: BCL-2 TR-FRET Assay (primary PPI inhibition); format: binding; conditions: 60 min incubation; read-out: BCL2 (IC50 code, BCL-2 TR-FRET)
Summary of the method: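 Mixture of 3 ng BCL-2, anti-His Tb donor, dye-labeled acceptor and BCL-2 peptide ligand, incubated 60 min with test compound. TR-FRET read at 340 nm excitation, 620/665 nm emission, 60 µs delay, 500 µs integration.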

[2] = target: BCL-XL (Homo sapiens (Human), UniProt Q07817); assay: BCL-XL TR-FRET Assay (primary PPI inhibition); format: binding; conditions: 60 min incubation; read-out: BCLxL (IC50 code, BCL-XL TR-FRET)
Summary of the method: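 TR-FRET displacement of a dye-labelled BCL-XL peptide ligand from His-tagged BCL-XL (10.5 ng) detected with a Tb-labelled anti-His donor. Incubation ran 60 min with test compound. Readout used 340 nm excitation and 620/665 nm emission with a 60 µs delay.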

[3] = target: MCL-1 (Homo sapiens (Human), UniProt Q07820); assay: MCL-1 TR-FRET Assay (primary PPI inhibition); format: binding; conditions: 60 min incubation; read-out: MCL1 IC50
Method: MCL-1 TR-FRET Assay (BPS Bioscience, #79506)
The following assay concentrations and times were used: 10 ng MCL-1, 5 μl of 1:200 anti-His Tb-labeled donor, 5 μl of 1:200 Dye-labeled acceptor, 5 μl of 1:10 MCL-1 Peptide Ligand, and 2 μl of test compound, with 60 min incubation time. The results of the assay were read using a Clariostar (BMG Labtech) plate reader with the following parameters: TR FRET, 340ex/620 and 665em; 60 μsec Delay; and 500 μsec integration.

[4] = system: RS4-11 cells; assay: Cell viability assay (CellTiter-Glo), RS4-11; format: cell-based; conditions: Homo sapiens, 72 h, 3 days, read-out: RS4-11 (CC50 code)
Summary of the method: (§1)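 HEK293 cells in DMEM at 2000/well, plated a day before dosing; RS4-11 and MOLT-4 in RPMI-1640 at 4000/well. Compounds diluted from 200× DMSO stocks through medium into wells, then incubated 3 days at 37 °C. Viability read by CellTiter-Glo luminescence.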

[5] = system: MOLT-4 cells; assay: Cell viability assay (CellTiter-Glo), MOLT-4; format: cell-based; conditions: Homo sapiens, 72 h, 3 days, read-out: MOLT-4 (CC50 code)
Summary of the method: as §1

[6] = Cell viability assay (CellTiter-Glo), HEK293; format: cell-based; conditions: human, HEK293 cells, read-out: HEK293 (CC50 code)
Summary of the method: as §1

[7] = system: caspase-3 and -7 activities in RS4-11 cells; assay: Caspase-3/7 activation (Caspase-Glo 3/7) in RS4-11 cells; format: cell-based; conditions: Homo sapiens, 3.5 h incubation, read-out: Cas-3/7 (EC50 code)
Summary of the method: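 RS4-11 cells exposed to varying compound concentrations for 3.5 h at 37 °C, 5% CO2, then 30 min at r.t. Caspase-Glo 3/7 reagent (luminogenic DEVD substrate) added, 30 min at r.t., luminescence read.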

Chain of BCL-XL (Q07817 whole entry): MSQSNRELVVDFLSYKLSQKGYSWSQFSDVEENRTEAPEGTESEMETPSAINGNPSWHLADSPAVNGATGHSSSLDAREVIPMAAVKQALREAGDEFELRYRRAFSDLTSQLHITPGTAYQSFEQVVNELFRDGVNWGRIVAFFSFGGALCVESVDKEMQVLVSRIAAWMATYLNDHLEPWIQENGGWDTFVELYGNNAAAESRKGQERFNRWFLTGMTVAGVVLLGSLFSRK
Chain of BCL-2 (P10415 whole entry): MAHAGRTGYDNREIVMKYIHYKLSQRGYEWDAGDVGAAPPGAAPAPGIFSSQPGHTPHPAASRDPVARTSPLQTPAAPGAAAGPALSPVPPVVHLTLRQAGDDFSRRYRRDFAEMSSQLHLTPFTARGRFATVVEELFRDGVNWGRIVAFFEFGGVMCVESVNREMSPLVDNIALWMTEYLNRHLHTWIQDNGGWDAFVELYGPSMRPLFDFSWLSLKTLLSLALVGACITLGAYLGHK
Chain of MCL-1 (Q07820 whole entry): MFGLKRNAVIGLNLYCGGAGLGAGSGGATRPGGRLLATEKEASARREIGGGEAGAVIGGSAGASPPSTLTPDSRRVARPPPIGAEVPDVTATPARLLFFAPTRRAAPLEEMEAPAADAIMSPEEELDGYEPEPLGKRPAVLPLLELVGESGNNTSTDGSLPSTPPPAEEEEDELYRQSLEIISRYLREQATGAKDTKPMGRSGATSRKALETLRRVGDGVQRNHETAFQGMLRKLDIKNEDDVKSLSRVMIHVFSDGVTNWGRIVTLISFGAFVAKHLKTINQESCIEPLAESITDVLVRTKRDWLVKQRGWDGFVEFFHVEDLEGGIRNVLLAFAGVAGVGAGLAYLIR

| Compound | IC50 [1] | IC50 [2] | IC50 [3] | CC50 [4] | CC50 [5] | CC50 at 3 days [6] | EC50 [7] |
| --- | --- | --- | --- | --- | --- | --- | --- |
| NC(=O)c1cccc(CN(C(=O)c2cc(-c3cc4c(cc3C(=O)N3Cc5ccccc5C[C@H]3CN3CCOCC3)OCO4)n3c2CCCC3)c2ccc(O)cc2)c1 [Compound 7, N-(3-carbamoylbenzyl)-N-(4-hydroxyphenyl)-3-(6-{[(3S)-3-(morpholin-4-ylmethyl)-3,4-dihydroisoquinolin-2(1H)-yl]carbonyl}-1,3-benzodioxol-5-yl)-5,6,7,8-tetrahydroindolizine-1-carboxamide] | ≤ 5 nM | ≤ 2000 nM | > 100000 nM | 100 to 200 nM | 2000 to 10000 nM | ≤ 10000 nM | 100 to 250 nM |
| COCCNC(=O)c1ccc(CN(C(=O)c2cc(-c3cc4c(cc3C(=O)N3Cc5ccccc5C[C@H]3CN3CCOCC3)OCO4)n3c2CCCC3)c2ccc(O)cc2)cc1 [Compound 1, N-(4-hydroxyphenyl)-N-{4-[(2-methoxyethyl)carbamoyl]benzyl}-3-(6-{[(3S)-3-(morpholin-4-ylmethyl)-3,4-dihydroisoquinolin-2(1H)-yl]carbonyl}-1,3-benzodioxol-5-yl)-5,6,7,8-tetrahydroindolizine-1-carboxamide] | ≤ 5 nM | ≤ 2000 nM | > 100000 nM | ≤ 100 nM | 2000 to 10000 nM | ≤ 10000 nM | ≤ 100 nM |
| NC(=O)c1ccc(CN(C(=O)c2cc(-c3cc4c(cc3C(=O)N3Cc5ccccc5C[C@H]3CN3CCOCC3)OCO4)n3c2CCCC3)c2ccc(O)cc2)cc1 [Compound 13, N-(4-carbamoylbenzyl)-N-(4-hydroxyphenyl)-3-(6-{[(3S)-3-(morpholin-4-ylmethyl)-3,4-dihydroisoquinolin-2(1H)-yl]carbonyl}-1,3-benzodioxol-5-yl)-5,6,7,8-tetrahydroindolizine-1-carboxamide] | 5 to 10 nM | ≤ 2000 nM | > 100000 nM | ≤ 100 nM | 2000 to 10000 nM | 10000 to 25000 nM | ≤ 100 nM |
| CN(C)CCNC(=O)c1ccc(CN(C(=O)c2cc(-c3cc4c(cc3C(=O)N3Cc5ccccc5C[C@H]3CN3CCOCC3)OCO4)n3c2CCCC3)c2ccc(O)cc2)cc1 [Compound 8, N-(4-{[2-(dimethylamino)ethyl]carbamoyl}benzyl)-N-(4-hydroxyphenyl)-3-(6-{[(3S)-3-(morpholin-4-ylmethyl)-3,4-dihydroisoquinolin-2(1H)-yl]carbonyl}-1,3-benzodioxol-5-yl)-5,6,7,8-tetrahydroindolizine-1-carboxamide] | ≤ 5 nM | ≤ 2000 nM | > 100000 nM | ≤ 100 nM | > 10000 nM | > 25000 nM | ≤ 100 nM |
| CN1CCN(C(=O)c2ccc(CN(C(=O)c3cc(-c4cc5c(cc4C(=O)N4Cc6ccccc6C[C@H]4CN4CCOCC4)OCO5)n4c3CCCC4)c3ccc(O)cc3)cc2)CC1 [Compound 12, N-(4-hydroxyphenyl)-N-{4-[(4-methylpiperazin-1-yl)carbonyl]benzyl}-3-(6-{[(3S)-3-(morpholin-4-ylmethyl)-3,4-dihydroisoquinolin-2(1H)-yl]carbonyl}-1,3-benzodioxol-5-yl)-5,6,7,8-tetrahydroindolizine-1-carboxamide] | 5 to 10 nM | ≤ 2000 nM | > 100000 nM | ≤ 100 nM | > 10000 nM | 10000 to 25000 nM | ≤ 100 nM |
